Experimental data taken from patent US9085606B2, “Beta amino acid derivatives as integrin antagonists” (Saint Louis University, priority 2012, dated 2015).

What was measured:
[1] = biological target: T1, Recombinant human integrin αvβ3 (Homo sapiens, UniProt P05106+P06756); assay: Solid Phase Receptor Assay for αvβ3 Function; conditions: binding to vitronectin-coated plate; read-out: αvβ3 SPRA IC50
T1 construct: purchased R&D Systems 3050-AV
Description: Solid Phase Receptor Assay for αvβ3 Function.
(§1) Wells were washed 3 times with 150 μL TBS+ and 150 μL of blocking buffer (TBS+ with 1% bovine serum albumin, Sigma A7906) were added. The plate was incubated for 1 hr at 37° C. and then washed 3× with TBS+ buffer. […] Compounds were diluted 1:100 into the integrin solution and then 50 μL added to empty wells of the washed vitronectin-coated plate according to a standard template with each sample repeated in triplicate. After incubation for two hours at room temperature, the plate was washed 3× with 150 μL of TBS+ buffer. To each well, 50 μL of biotinylated anti-αv antibody (R&D Systems, BAF1219) at 0.5 μg/mL in TBS+/0.1% BSA were added and the plate covered and incubated for 1 hr at room temperature. After washing the plate 3× with 150 μL of TBS+ buffer, 50 μL of streptavidin-conjugated horseradish peroxidase (R&D Systems, DY998) diluted in TBS+ blocking buffer were added to the wells and the plate incubated for 20 min at room temperature. The plate was washed 3× with TBS+ buffer followed by 50 μL of TMB substrate (Sigma, T4444) added to each well and the plate was incubated for 20 min at room temperature. The reaction was optionally stopped with 25 μL of Stop Solution (Sigma, S5689). Plates were read by colorimetric detection at 650 nm wavelength using a Tecan S afire II plate reader.

[2] = biological target: T2, Recombinant human integrin αvβ6 (Homo sapiens, UniProt P06756+P18564); assay: Solid Phase Receptor Assay for αvβ6 Function; conditions: binding to LAP-coated plate; read-out: αvβ6 SPRA IC50
T2 construct: purchased R&D Systems 3817-AV
T2 sequence (P06756 31-992 limits assumed): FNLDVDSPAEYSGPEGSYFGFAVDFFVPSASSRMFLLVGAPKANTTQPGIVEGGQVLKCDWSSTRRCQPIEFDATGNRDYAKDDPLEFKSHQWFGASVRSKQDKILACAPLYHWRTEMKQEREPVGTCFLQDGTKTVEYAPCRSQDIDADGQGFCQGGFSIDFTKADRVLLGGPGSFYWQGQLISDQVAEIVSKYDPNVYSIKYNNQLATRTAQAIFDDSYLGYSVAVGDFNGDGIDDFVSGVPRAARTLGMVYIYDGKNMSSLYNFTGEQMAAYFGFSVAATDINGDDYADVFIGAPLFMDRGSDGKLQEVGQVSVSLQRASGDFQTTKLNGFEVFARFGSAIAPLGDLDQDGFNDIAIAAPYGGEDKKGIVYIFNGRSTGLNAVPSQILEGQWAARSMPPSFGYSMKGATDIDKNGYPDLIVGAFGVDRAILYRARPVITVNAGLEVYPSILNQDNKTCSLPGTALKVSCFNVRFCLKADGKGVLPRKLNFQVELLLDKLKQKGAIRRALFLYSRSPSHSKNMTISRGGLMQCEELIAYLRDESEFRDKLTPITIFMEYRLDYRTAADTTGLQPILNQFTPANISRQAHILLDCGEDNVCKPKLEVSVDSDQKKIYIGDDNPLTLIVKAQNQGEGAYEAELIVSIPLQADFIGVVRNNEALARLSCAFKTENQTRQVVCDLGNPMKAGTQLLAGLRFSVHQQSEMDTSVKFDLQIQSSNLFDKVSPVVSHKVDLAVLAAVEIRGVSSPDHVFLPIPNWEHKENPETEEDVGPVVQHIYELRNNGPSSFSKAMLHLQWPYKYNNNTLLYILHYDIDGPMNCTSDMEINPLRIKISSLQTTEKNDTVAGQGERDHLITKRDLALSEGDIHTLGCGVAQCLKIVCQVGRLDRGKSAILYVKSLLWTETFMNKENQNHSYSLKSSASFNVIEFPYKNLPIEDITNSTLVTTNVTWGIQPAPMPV
T2 sequence (P18564 22-707 limits assumed): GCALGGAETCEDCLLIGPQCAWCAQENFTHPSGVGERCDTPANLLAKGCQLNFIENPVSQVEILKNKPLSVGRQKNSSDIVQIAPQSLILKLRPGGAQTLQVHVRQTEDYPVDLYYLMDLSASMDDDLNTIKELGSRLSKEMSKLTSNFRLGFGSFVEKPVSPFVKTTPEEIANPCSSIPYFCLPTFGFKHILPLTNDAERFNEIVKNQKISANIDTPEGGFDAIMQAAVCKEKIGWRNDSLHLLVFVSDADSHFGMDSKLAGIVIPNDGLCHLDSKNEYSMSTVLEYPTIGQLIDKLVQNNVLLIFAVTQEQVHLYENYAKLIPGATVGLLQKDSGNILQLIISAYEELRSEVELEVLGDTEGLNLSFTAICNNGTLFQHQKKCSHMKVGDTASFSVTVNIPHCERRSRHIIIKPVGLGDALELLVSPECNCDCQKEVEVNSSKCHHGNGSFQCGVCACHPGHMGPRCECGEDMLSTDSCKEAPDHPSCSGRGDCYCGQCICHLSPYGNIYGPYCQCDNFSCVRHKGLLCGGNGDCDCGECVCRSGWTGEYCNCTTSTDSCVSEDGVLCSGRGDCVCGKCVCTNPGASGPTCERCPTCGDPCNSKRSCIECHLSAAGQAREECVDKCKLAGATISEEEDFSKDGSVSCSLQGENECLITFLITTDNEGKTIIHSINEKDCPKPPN
Description: Solid Phase Receptor Assay for αvβ6 Function.
Wells were washed 3 times with 150 μL TBS+, and 150 μL of blocking buffer (TBS+ with 1% bovine serum albumin, Sigma A7906) were added. The plate was incubated for 1 hr at 37° C., and then washed 3× with TBS+ buffer. […] Compounds were diluted 1:100 into the integrin solution and then 50 μL added to empty wells of the washed LAP-coated plate according to a standard template with each sample repeated in triplicate. After incubation for two hours at room temperature, the plate was washed 3× with 150 μL of TBS+ buffer. To each well, 50 μL of biotinylated anti-αv antibody (R&D Systems, BAF1219) at 0.5 μg/mL in TBS+/0.1% BSA were added and the plate was covered and incubated for 1 hr at room temperature. After washing the plate 3× with 150 μL of TBS+ buffer, 50 μL of streptavidin-conjugated horseradish peroxidase (R&D Systems, DY998) diluted in TBS+ blocking buffer were added to the wells and the plate incubated for 20 min at room temperature. The plate was washed 3× with TBS+ buffer followed by 50 μL of TMB substrate (Sigma T4444) added to each well and the plate incubated for 20 min at room temperature. The reaction was optionally stopped with 25 μL of Stop Solution (Sigma S5689). Plates were read by colorimetric detection at 650 nm wavelength using a Tecan Safire II plate reader.

[3] = biological target: T3, Recombinant human integrin α5β1 (Homo sapiens, UniProt P05556+P08648); assay: Solid Phase Receptor Assay for α5β1 Function; conditions: binding to fibronectin-coated plate; read-out: α5β1 SPRA IC50
T3 construct: purchased R&D Systems 3230-A5
T3 sequence (P08648 42-995 limits assumed): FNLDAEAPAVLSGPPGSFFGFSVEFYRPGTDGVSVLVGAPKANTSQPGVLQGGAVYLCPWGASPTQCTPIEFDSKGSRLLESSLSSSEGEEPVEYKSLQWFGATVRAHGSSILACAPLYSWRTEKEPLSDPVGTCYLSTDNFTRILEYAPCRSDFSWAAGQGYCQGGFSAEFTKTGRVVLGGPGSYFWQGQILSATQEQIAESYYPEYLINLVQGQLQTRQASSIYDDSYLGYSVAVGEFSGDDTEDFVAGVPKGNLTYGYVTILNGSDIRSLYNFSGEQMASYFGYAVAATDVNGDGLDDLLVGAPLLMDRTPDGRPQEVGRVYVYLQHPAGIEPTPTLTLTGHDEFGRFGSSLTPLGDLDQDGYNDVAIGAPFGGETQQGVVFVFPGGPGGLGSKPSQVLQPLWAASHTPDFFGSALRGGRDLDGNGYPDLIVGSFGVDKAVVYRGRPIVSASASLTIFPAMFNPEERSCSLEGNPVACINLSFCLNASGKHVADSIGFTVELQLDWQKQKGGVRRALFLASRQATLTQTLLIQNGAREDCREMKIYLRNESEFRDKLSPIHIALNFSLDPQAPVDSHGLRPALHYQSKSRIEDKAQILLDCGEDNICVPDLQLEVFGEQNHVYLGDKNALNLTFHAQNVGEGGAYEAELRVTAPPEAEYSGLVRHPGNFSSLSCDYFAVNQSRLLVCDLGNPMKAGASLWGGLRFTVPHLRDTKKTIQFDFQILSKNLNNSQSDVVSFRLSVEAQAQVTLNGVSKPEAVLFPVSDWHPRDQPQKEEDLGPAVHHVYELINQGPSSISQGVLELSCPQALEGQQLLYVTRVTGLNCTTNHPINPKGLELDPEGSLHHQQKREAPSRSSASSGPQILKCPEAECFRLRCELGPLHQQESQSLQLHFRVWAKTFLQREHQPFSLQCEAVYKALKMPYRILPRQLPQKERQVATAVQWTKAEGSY
T3 sequence (P05556 21-728 limits assumed): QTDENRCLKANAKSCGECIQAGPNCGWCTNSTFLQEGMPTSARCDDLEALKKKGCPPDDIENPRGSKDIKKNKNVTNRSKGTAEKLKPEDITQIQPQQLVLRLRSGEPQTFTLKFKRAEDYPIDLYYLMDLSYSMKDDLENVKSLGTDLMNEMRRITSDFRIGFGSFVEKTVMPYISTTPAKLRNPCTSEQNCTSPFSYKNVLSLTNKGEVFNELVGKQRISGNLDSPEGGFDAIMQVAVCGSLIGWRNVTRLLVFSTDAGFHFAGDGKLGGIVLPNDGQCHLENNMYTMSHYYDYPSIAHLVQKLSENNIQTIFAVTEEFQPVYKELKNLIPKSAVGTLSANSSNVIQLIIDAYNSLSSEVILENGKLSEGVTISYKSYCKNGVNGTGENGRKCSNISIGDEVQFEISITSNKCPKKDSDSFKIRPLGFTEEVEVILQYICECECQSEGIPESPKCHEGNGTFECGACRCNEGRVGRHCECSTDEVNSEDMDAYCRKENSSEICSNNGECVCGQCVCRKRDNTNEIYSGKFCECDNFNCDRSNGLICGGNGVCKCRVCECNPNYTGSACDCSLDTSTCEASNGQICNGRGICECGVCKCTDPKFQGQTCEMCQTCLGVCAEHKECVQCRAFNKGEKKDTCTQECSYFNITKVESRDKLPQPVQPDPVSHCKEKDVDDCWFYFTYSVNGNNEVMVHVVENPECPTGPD
Description: Solid Phase Receptor Assay for α5β1 Function.
Wells were washed 3 times with 150 μL TBS+ and 150 μl of blocking buffer (TBS+ with 1% bovine serum albumin, Sigma A7906) were added. The plate was incubated for 1 hr at 37° C. and then washed 3× with TBS+ buffer. […] Compounds were diluted 1:100 into the integrin solution and then 50 μL added to empty wells of the washed fibronectin-coated plate according to a standard template with each sample repeated in triplicate. After incubation for two hours at room temperature, the plate was washed 3× with 150 μL of TBS+ buffer. To each well, 50 μL of biotinylated anti-α5 antibody (R&D Systems, BAF1864) at 0.5 ug/mL in TBS+/0.1% BSA were added and the plate covered and incubated for 1 hr at room temperature. After washing the plate 3× with 150 μL of TBS+ buffer, 50 μL of streptavidin-conjugated horseradish peroxidase (R&D Systems, DY998) diluted in TBS+ blocking buffer were added to the wells and the plate incubated for 20 min at room temperature. The plate was washed 3× with TBS+ buffer followed by 50 μL of room temperature TMB substrate (Sigma, T444) added to each well and the plate incubated for 20 min at room temperature. The reaction was optionally stopped with 25 μL of Stop Solution (Sigma S5689). Plates were read by colorimetric detection at 650 nm wavelength using a Tecan Safire II plate reader.

[4] = biological target: T4, Recombinant human integrin αvβ5 (Homo sapiens, UniProt P06756+P18084); assay: Solid Phase Receptor Assay for αvβ5 Function; conditions: binding to vitronectin-coated plate; read-out: αvβ5 SPRA IC50
T4 construct: purchased R&D Systems 2528-AV
T4 sequence (P06756 31-992 limits assumed): as the sequence (P06756 31-992 limits assumed) above
T4 sequence (P18084 24-719 limits assumed): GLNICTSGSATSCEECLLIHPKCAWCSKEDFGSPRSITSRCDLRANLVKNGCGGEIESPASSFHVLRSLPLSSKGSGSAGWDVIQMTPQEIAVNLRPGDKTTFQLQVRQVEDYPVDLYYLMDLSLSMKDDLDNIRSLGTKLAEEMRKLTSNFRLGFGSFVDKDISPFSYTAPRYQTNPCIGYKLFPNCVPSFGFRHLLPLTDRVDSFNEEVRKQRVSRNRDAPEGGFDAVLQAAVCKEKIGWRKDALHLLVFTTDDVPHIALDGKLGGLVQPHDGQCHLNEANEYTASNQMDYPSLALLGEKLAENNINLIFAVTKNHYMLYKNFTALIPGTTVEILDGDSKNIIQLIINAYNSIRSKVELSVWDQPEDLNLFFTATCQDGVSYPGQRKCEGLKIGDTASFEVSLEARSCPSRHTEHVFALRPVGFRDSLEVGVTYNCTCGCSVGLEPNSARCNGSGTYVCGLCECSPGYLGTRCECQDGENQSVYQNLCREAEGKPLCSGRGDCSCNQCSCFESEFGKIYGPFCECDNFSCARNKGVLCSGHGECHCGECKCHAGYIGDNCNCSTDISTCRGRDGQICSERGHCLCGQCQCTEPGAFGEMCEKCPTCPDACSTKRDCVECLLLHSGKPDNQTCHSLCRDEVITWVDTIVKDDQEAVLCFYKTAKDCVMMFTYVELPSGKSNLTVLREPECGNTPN
Description: Solid Phase Receptor Assay for αvβ5 Function.
as §1, with “TBS+/0.1% BSA at 0.5 μg/mL were added” for “TBS+/0.1% BSA were added”, “peroxidase (R&D Systems DY998) diluted” for “peroxidase (R&D Systems, DY998) diluted”, “TMB substrate (Sigma T4444) added” for “TMB substrate (Sigma, T4444) added”, “the plate incubated for” for “the plate was incubated for”, “Stop Solution (Sigma S5689). Plates” for “Stop Solution (Sigma, S5689). Plates”, “a Tecan Safire II plate” for “a Tecan S afire II plate”

T1 sequence (P06756 31-992 limits assumed): as the sequence (P06756 31-992 limits assumed) above
T1 sequence (P05106 27-718 limits assumed): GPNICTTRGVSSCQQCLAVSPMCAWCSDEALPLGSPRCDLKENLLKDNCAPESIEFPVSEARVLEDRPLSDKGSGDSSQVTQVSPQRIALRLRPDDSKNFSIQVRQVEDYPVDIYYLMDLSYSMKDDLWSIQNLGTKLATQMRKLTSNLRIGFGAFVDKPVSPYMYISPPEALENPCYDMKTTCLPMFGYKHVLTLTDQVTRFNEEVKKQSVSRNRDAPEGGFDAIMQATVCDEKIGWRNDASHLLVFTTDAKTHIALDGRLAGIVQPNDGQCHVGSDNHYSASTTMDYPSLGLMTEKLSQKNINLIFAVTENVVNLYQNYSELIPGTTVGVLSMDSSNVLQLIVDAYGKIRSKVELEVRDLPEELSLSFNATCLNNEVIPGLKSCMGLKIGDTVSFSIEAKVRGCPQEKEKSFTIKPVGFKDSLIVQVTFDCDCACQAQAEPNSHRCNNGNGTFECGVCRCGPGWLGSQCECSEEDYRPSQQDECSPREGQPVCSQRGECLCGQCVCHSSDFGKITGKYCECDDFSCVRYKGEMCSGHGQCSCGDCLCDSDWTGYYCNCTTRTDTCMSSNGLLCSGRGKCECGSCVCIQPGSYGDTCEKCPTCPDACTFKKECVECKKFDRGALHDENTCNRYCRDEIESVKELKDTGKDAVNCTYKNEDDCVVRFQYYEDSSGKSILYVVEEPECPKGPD

SMILES	IC50 [1]	IC50 [2]	IC50 [3]	IC50 [4]
CC(C)(O)c1cc([C@H](CC(=O)O)NC(=O)CNC(=O)c2cc(O)cc(NC3=NCC(O)CN3)c2)cc(C(F)(F)F)c1 (stereo partly drawn) [Example 13, (3S)-3-(2-(3-hydroxy-5-((5-hydroxy-1,4,5,6-tetrahydropyrimidin-2-yl)amino)benzamido)acetamido)-3-(3-(2-hydroxypropan-2-yl)-5-(trifluoromethyl)phenyl)propanoic acid]	1800 pM	600 pM	900 pM	300 pM
CC(C)(C)c1cc(Br)cc([C@H](CC(=O)O)NC(=O)CNC(=O)c2cncc(NC(=N)N)c2)c1 [Example 6, (S)-3-(3-bromo-5-(tert-butyl)phenyl)-3-(2-(5-guanidinonicotinamido)acetamido) propanoic acid]	3500 pM	500 pM	1000 pM	2200 pM
CC(C)(O)c1cc(Br)cc([C@H](CC(=O)O)NC(=O)CNC(=O)c2cc(O)cc(NC3=NCC(O)CN3)c2)c1 (stereo partly drawn) [Example 3, (3S)-3-(3-bromo-5-(2-hydroxypropan-2-yl)phenyl)-3-(2-(3-hydroxy-5-((5-hydroxy-1,4,5,6-tetrahydropyrimidin-2-yl)amino)benzamido)acetamido)propanoic acid]	2000 pM	700 pM	300 pM	700 pM
CC(C)(CO)c1cc(Cl)cc([C@H](CC(=O)O)NC(=O)CNC(=O)c2cc(O)cc(NC3=NCC(O)CN3)c2)c1 (stereo partly drawn) [Example 15, (3S)-3-(3-chloro-5-(1-hydroxy-2-methylpropan-2-yl)phenyl)-3-(2-(3-hydroxy-5-((5-hydroxy-1,4,5,6-tetrahydropyrimidin-2-yl)amino)benzamido)acetamido)propanoic acid]	3300 pM	400 pM	400 pM	400 pM
CC(C)(C)c1cc(Br)cc([C@H](CC(=O)O)NC(=O)CNC(=O)c2cccc(NC(=N)N)c2)c1 [Example 5, (S)-3-(3-bromo-5-(tert-butyl)phenyl)-3-(2-(3-guanidinobenzamido)acetamido) propanoic acid]	2600 pM	600 pM	600 pM	1600 pM
O=C(O)C[C@H](NC(=O)CNC(=O)c1cc(O)cc(NC2=NCC(O)CN2)c1)c1cc(Cl)cc(C2(CO)CCOCC2)c1 (stereo partly drawn) [Example 17, (3S)-3-(3-chloro-5-(4-(hydroxymethyl)tetrahydro-2H-pyran-4-yl)phenyl)-3-(2-(3-hydroxy-5-((5-hydroxy-1,4,5,6-tetrahydropyrimidin-2-yl)amino)benzamido)acetamido)propanoic acid]	4000 pM	500 pM	400 pM	500 pM
CC(C)(C)c1cc(Br)cc([C@H](CC(=O)O)NC(=O)CNC(=O)c2cccc(NC3=NCCN3)c2)c1 [Example 7, (S)-3-(3-bromo-5-(tert-butyl)phenyl)-3-(2-(3-((4,5-dihydro-1H-imidazol-2-yl)amino)benzamido)acetamido)propanoic acid]	1300 pM	200 pM	700 pM	500 pM
COCC(C)(C)c1cc(Cl)cc([C@H](CC(=O)O)NC(=O)CNC(=O)c2cc(O)cc(NC3=NCC(O)CN3)c2)c1 (stereo partly drawn) [Example 14, (3S)-3-(3-chloro-5-(1-methoxy-2-methylpropan-2-yl)phenyl)-3-(2-(3-hydroxy-5-((5-hydroxy-1,4,5,6-tetrahydropyrimidin-2-yl)amino)benzamido)acetamido)propanoic acid]	1700 pM	400 pM	200 pM	300 pM
CC(C)(C)c1cc(C#N)cc([C@H](CC(=O)O)NC(=O)CNC(=O)c2cc(O)cc(NC3=NCC(O)CN3)c2)c1 (stereo partly drawn) [Example 12, (3S)-3-(3-(tert-butyl)-5-cyanophenyl)-3-(2-(3-hydroxy-5-((5-hydroxy-1,4,5,6-tetrahydro-pyrimidin-2-yl)amino)benzamido)acetamido)propanoic acid]	2800 pM	400 pM	300 pM	200 pM
O=C(O)C[C@H](NC(=O)CNC(=O)c1cc(O)cc(NC2=NCC(O)CN2)c1)c1cc(Cl)cc(C2(CF)CCOCC2)c1 (stereo partly drawn) [Example 20, (3S)-3-(3-chloro-5-(4-(fluoromethyl)tetrahydro-2H-pyran-4-yl)phenyl)-3-(2-(3-hydroxy-5-((5-hydroxy-1,4,5,6-tetrahydropyrimidin-2-yl)amino)benzamido)acetamido)propanoic acid]	3700 pM	1400 pM	2400 pM	500 pM
CC(C)(C)c1cc(Br)c(O)c([C@H](CC(=O)O)NC(=O)CNC(=O)c2cc(O)cc(NC3=NCC(O)CN3)c2)c1 (stereo partly drawn) [Example 1, (3S)-3-(3-bromo-5-(tert-butyl)-2-hydroxyphenyl)-3-(2-(3-hydroxy-5-((5-hydroxy-1,4,5,6-tetrahydropyrimidin-2-yl)amino)benzamido)acetamido)propanoic acid]	5100 pM	400 pM	500 pM	47000 pM
CC(C)(C)c1cc(-c2cncnc2)cc([C@H](CC(=O)O)NC(=O)CNC(=O)c2cc(O)cc(NC3=NCC(O)CN3)c2)c1 (stereo partly drawn) [Example 19, (3S)-3-(3-(tert-butyl)-5-(pyrimidin-5-yl)phenyl)-3-(2-(3-hydroxy-5-((5-hydroxy-1,4,5,6-tetrahydropyrimidin-2-yl)amino)benzamido)acetamido)propanoic acid]	8800 pM	700 pM	400 pM	21000 pM
CC(C)(O)c1cc(Cl)cc([C@H](CC(=O)O)NC(=O)CNC(=O)c2cc(O)cc(NC3=NCC(O)CN3)c2)c1 (stereo partly drawn) [Example 4, (3S)-3-(3-chloro-5-(2-hydroxypropan-2-yl)phenyl)-3-(2-(3-hydroxy-5-((5-hydroxy-1,4,5,6-tetrahydropyrimidin-2-yl)amino)benzamido)acetamido)propanoic acid]	2300 pM	500 pM	700 pM	400 pM
